Literature values, collected in US20060069069A1, “Methods and compositions for the administration of calcium chelators, bisphosponates and/or citrate compounds and their pharmaceutical uses” (Nanobac Pharmaceuticals, Inc., priority 2004, published 2006).

System: bone resorption
Conditions: versus etidronate; both in vitro and in vivo

Structure (SMILES): NCCCC(O)(P(=O)(O)O)P(=O)(O)O [alendronate]
- potency relative to etidronate for the prevention of bone resorption: approximately 700 fold
